These results are taken from patent US4582824A, “Method for inhibiting activities of platelet activating factor” (Takeda Chemical Industries, Ltd., priority 1983, dated 1986).

By inhibition is commonly meant the relative decrease from the control value, in per cent.

The experiment relates to PAF-induced platelet aggregation (washed PRP). The experiment can be described thus: Activity to inhibit PAF in platelet aggregation (washed PRP). The experiment is classed as cell-based, rabbit. The settings on record: Oryctolagus cuniculus, test compound 3×10^-5 M, PAF 3×10^-7 M, 37° C., read-out: Inhibition rate. As to the method: Using an injection syringe containing a 3.15% solution of citric acid (in a ratio of 1 part per 9 parts of blood) as an anticoagulant, the blood was directly collected from a male rabbit. Then, at room temperature, the blood was centrifuged at 1,000 r.p.m. for 10 minutes to harvest a platelet rich plasma (PRP). This PRP was further centrifuged at 1,400 r.p.m. for 15 minutes to give a platelet pellet. The pellet was suspended in Ca^++ -free Tyrode solution (containing 0.25% of gelatin) to give a washed PRP. This washed PRP (250 μl) was stirred at 37° C. for 2 minutes, then 25 μl of a 0.2 to 0.5 mM Ca^++ solution was added, and the mixture was further stirred for 30 seconds. Then, the test compound was added to the above platelet preparation to a level of 3×10^-5 M. After stirring the mixture for 2 minutes, 3×10^-7 M of PAF was added. The degree of platelet aggregation was determined with a platelet aggregometer (Rika Denki). The activity of the test compound was estimated from the inhibition rate as compared with the maximum optical transmission (maximum aggregation) of control PRP by PAF.
On to `CCCCCCCCCCCCCCCCCCNC(=O)OCC(COP(=O)([O-])OCC[n+]1ccccc1)OC` (stereo not shown) [Production Example 1, 3-(N-Octadecylcarbamoyloxy)-2-methoxypropyl 2-pyridinioethyl phosphate], for which the inhibition at 30 µM was 95%.

Take `CCCCCCCCCCNC(=O)OCC(COP(=O)([O-])OCC[n+]1ccsc1)OC` (stereo not shown) [Production Example 3, 3-(N-Decylcarbamoyloxy)-2-methoxypropyl 2-thiazolioethyl phosphate]: the inhibition at 30 µM stood at 12%.

Turning to `CCCCCCCCCCCCCCCCCCNC(=O)OCC(COP(=O)([O-])OCC[n+]1csc(CCO)c1C)OC` (stereo not shown) [Production Example 4, 3-(N-octadecylcarbamoyloxy)-2-methoxypropyl 2-(4-methyl-5-hydroxyethyl)thiazolioethyl phosphate], the inhibition at 30 µM was determined as 33%.

For `CCCCCCCCCCCCCCCCCCNC(=O)OCC(COP(=O)([O-])OCC[n+]1ccc2ccccc2c1)OC` (stereo not shown) [Production Example 5, 3-(N-Octadecylcarbamoyloxy)-2-methoxypropyl 2-isoquinolinioethyl phosphate], the inhibition at 30 µM turned out to be 37%.

As for `CCCCCCCCCCCCCCCCCCNC(=O)OCC(COP(=O)([O-])OCC[n+]1ccsc1)OCc1ccccc1` (stereo not shown) [Production Example 6, 3-(N-Octadecylcarbamoyloxy)-2-benzyloxypropyl 2-thiazolioethyl phosphate], the inhibition at 30 µM turned out to be 79%.

As for `CCCCCCCCCCCCCCCCCCNC(=O)OCC(COP(=O)([O-])OCC[n+]1ccccc1)OCc1ccccc1` (stereo not shown) [Production Example 7, 3-(N-Octadecylcarbamoyloxy)-2-benzyloxypropyl 2-pyridinioethyl phosphate], the inhibition at 30 µM came to 19%.

Take `CCCCCCCCCCCCCCCCCCCCCCNC(=O)OCC(COP(=O)([O-])OCC[n+]1ccsc1)OC` (stereo not shown) [Production Example 8, 3-(N-Docosylcarbamoyloxy)-2-methoxypropyl 2-thiazolioethyl phosphate]: the inhibition at 30 µM came to 24%.

With `CCCCCCCCCCCCCCCNC(=O)OCC(COP(=O)([O-])OCC[n+]1ccsc1)OC` (stereo not shown) [Production Example 10, 2-Methoxy-3-pentadecylcarbamoyloxypropyl 2-thiazolioethyl phosphate], the inhibition at 30 µM was 100%.

For the molecule `CCCCCCCCCCCCCCCCNC(=O)OCC(COP(=O)([O-])OCC[n+]1ccsc1)OC` (stereo not shown) [Production Example 11, 2-Methoxy-3-hexadecylcarbamoyloxypropyl 2-thiazolioethyl phosphate], the inhibition at 30 µM stood at 100%.

Turning to `CCCCCCCCCCCCCCCCCNC(=O)OCC(COP(=O)([O-])OCC[n+]1ccsc1)OC` (stereo not shown) [Production Example 12, 2-methoxy-3-heptadecylcarbamoyloxypropyl 2-thiazolioethyl phosphate], the inhibition at 30 µM was 100%.
